Consider 3 compounds from US20210205244A1, “PREVENTION AND/OR TREATMENT OF CHRONIC FATIGUE SYNDROME” (BOHNE ASKØY AS, priority 2016, published 2021).

For data set [1], the system named is healthy and ME affected persons. Particulars: general knowledge; cited from earlier work.
A further data set deals with Person 5. Put plainly: Medicinal drug use in combination with the treatment. In kind it is in vivo, human. Particulars: Person 5, excluded after 20 weeks. As to the method: Three persons were not receiving the drinkable for self-treatment: 2, 5 and 6. […] Person 6 was excluded of toxicological consideration after 20 weeks because massive use of painkiller […] forte, 600 mg: 20 tablets per day, and was practically an abuser of medicinal drugs. Person 2 was excluded because use of sleep medicine-Alimemazin tartrate. All three drugs listed with long list of the negative by-effects. Those effects are very similar to the symptoms on the list of Canadian Criteria. Further treatment with mixture of drinkable oxalates was therefore is not considerate.

The test system of the next data set is P12. The conditions noted are these: P12, altogether 8 doses; cited from earlier work.

Structures can show the parent of a compound that is named as a salt.

For the compound `O=C(O)CCCCC1CCSS1` (stereo not drawn) [ALA, alpha-lipoic acid], the “Time of excretion via urine post intake” value in data set [1] is 30 to 60 min.
For the compound `CN(C)CCC[C@@]1(c2ccc(F)cc2)OCc2cc(C#N)ccc21` [Escitalopram Oxalate], the “Adverse effect in combination with mixture of drinkable oxalates” value in the data set on Person 5 is recorded as “massive diarrhea”.
“Rituximab: Rituximab therapy given in clinical studies at Haukeland University Hospital”: the Response to therapy entry in the data set on P12 is reported as “non-responder”.
